How the values were obtained:
[1] = system: Humanized anti-folate receptor 1 (FOLR1) IgG1; experiment: Antibody disulfide reduction by damaged CHO cell supernatant (freeze-thaw), thiol per antibody by Ellman's assay; format: biochemical; conditions: for thiol/antibody ratio: about 2.5 hours, control 5.5; for thiol per antibody: 2.2 hours
Method: (§1) For all of the examples described below, cell damage was simulated by multiple freeze-thaw cycles of cells, by addition of RIPA buffer (50 mM Tris-HCl, pH 7.4, 1% NP-40, 0.5% sodium deoxycholate, 0.1% sodium dodecylsulfate), or by using microfluidizer. This damaged cell supernatant or lysate was then incubated with a buffered solution containing antibody with or without the anti-reduction agent being tested, following which the extent of the antibody-disulfide reduction was measured using Ellman's assay for thiol (P. W. Riddles, R. L. Blakeley, and B. Zerner, Methods Enzymol., 91, 49-60, 1983) or by non-reducing SDS protein LabChip analysis. The total thiol level present in the mixture of damaged cell supernatant/lysate was measured initially.
(§2) A simulated, damaged CHO cell suspension was prepared using 300 million CHO cells per ml phosphate buffered saline (PBS), which was subjected to three freeze-thaw cycles under vacuum, followed by pelleting of cell debris by centrifugation, and storage of the supernatant at −80° C.
The concentration of thiol in the suspension of damaged CHO cells was measured as 4 mM using DTNB ((5,5′-dithiobis(2-nitrobenzoic acid); Ellman's reagent). Humanized anti-folate receptor 1 (FOLR1) IgG1 (1 mg) was immobilized on 0.05 ml of Protein A bead (RepliGen) and then treated with pre-mixed 0.5 ml PBS and 0.1 ml damaged CHO cell supernatant. The concentration of thiol in this mixture was 0.67 mM.
The sample was rotated for about 2.2 hours at ambient temperature, following which the supernatant was removed and the beads were washed with PBS four times (1.5 ml each). The thiol content of the immobilized antibody on the beads was then analyzed by the addition of 0.6 ml of PBS containing 0.5 mM DTNB, rotation for about 10 minutes, centrifugation, and measurement of the absorbance of the supernatant at 412 nm.
Methylene blue was then tested at different concentrations to determine whether it could protect against disulfide bond reduction during the incubation of antibody with damaged CHO cell supernatant. FIG. 1 is a graph showing the results of immobilized 1 mg humanized IgG1 with pre-mixed 0.5 ml PBS and 0.1 ml damaged CHO cell supernatant in the presence of methylene blue, rotation for 2.2 hours at ambient temperature, and a similar thiol analysis of immobilized antibody as above. Unexpectedly, very low concentrations of methylene blue (0.025 and 0.05 mM) protected against the reduction of antibody disulfide bonds.
In a similar experiment, a sample containing 1 mg immobilized antibody was incubated with a mixture of damaged CHO cell supernatant and 0.05 mM methylene blue for 2.2 hours, followed by washing of beads as above, after which the antibody was eluted from Protein A bead using 100 mM acetic acid containing 150 mM NaCl, neutralized to pH 7 by addition of 1.25 M […] solution. Using an aliquot of the neutralized eluted antibody sample, the thiol per antibody was measured as 0.002 thiol per antibody using DTNB, thus indicating the protection against antibody disulfide reduction by methylene blue. […]

CHO cells = experiment: Viability of CHO cells after 1 day treatment; conditions: 0.75 mM, control 98.9%
humanized N901 antibody = experiment: Antibody disulfide reduction by CHO cell lysate (RIPA buffer), thiol/antibody by Ellman's assay; format: biochemical; conditions: for thiol/antibody ratio: 3 hours, lysate thiol 2.1 mM, control 5.74
Method: as §1
The effect of 1,2-naphthoquinone-4-sulfonic acid (NQS) on antibody-disulfide reduction was studied by incubating 1,2-naphthoquinone-4-sulfonic acid at several concentrations with antibody and damaged CHO lysate. The damaged CHO cell lysate was generated by the addition of 0.5 ml RIPA buffer (50 mM Tris-HCl, pH 7.4, 1% NP-40, 0.5% sodium deoxycholate, 0.1% sodium dodecylsulfate) to 100 million CHO cells. The thiol concentration in CHO cell lysate was measured by Ellman's assay as 2.1 mM.
Each sample contained pre-mixed 0.5 ml RIPA buffer (50 mM Tris-HCl, pH 7.4, 1% NP-40, 0.5% sodium deoxycholate, 0.1% sodium dodecylsulfate) with 1 mg humanized N901 antibody, with or without 1,2-naphthoquinone-4-sulfonic acid (25 micromolar, or 50 micromolar, or 100 micromolar), which was added to a cell pellet of 100 million CHO cells, and the resuspended cells were incubated at ambient temperature for 30 minutes, following which the cell debris were pelleted by centrifugation (16,000 g, 5 min). The supernatant from each sample was added to 50 microliter immobilized-Protein A beads (RepliGen) and rotated at ambient temperature for 3 hours, after which the supernatant was removed and the beads washed with PBS.
(§3) The thiol content of the immobilized antibody was determined by the addition of 0.6 ml of PBS containing 0.5 mM DTNB (Ellman's reagent) to the beads, rotation for about 10 minutes, centrifugation, and absorbance measurement of supernatant at 412 nm.
The effect of anthraquinone-2-sulfonic acid (AQS) on antibody-disulfide reduction was studied during co-incubation of anthraquinone-2-sulfonic acid with antibody and damaged CHO lysate. Each sample contained pre-mixed 1 ml RIPA buffer (50 mM Tris-HCl, pH 7.4, 1% NP-40, 0.5% sodium deoxycholate, 0.1% sodium dodecylsulfate) with 1 mg humanized N901 antibody, with or without 0.2 mM anthraquinone-2-sulfonic acid (AQS), which was added to a cell pellet of 100 million CHO cells, and the resuspended cells were incubated at ambient temperature for 30 minutes, following which the cell debris were pelleted by centrifugation (16,000 g, 5 min). The thiol concentration in CHO cell lysate was 1 mM (Ellman's assay).
as §3, with “The supernatant from each sample was added to 50 microliter immobilized-Protein A beads (RepliGen) and rotated at ambient temperature for 3 hours, after which the supernatant was removed and the beads washed with PBS. The” for “The”
In another experiment, 1 mg huN901 antibody was incubated with CHO lysate, with or without 0.4 mM anthraquinone-2-sulfonic acid for 4 hours. The mixture was then analyzed for thiol/antibody as above.
The thiol concentration in CHO cell lysate was 1 mM (Ellman's assay).
The supernatant from each sample was added to 50 microliter immobilized-Protein A beads (RepliGen) and rotated at ambient temperature for 3 hours, after which the supernatant was removed and the beads washed with PBS. […]

[2] = system: Humanized FOLR1 IgG1 antibody; experiment: Antibody disulfide reduction by CHO cell lysate (RIPA buffer), thiol per antibody by Ellman's assay; format: biochemical; conditions: 5 mM agent, 100 mM phosphate buffer pH 7, 2 hours
Method: Lysates of CHO cells (˜60 million cells lysed in 0.6 ml RIPA buffer and clarified by centrifugation) were added to each of these mixtures. The pH values of all samples were adjusted to 7. […] The samples were incubated with 200 microliter immobilized-Protein A beads (RepliGen) and rotated at ambient temperature for 3 hours, after which the supernatant was removed and the beads washed with PBS. The thiol content of the immobilized antibody was determined by the addition of 0.2 ml of PBS containing 0.5 mM DTNB (Ellman's reagent) to the beads, rotation for about 10 minutes, centrifugation, and absorbance measurement of the supernatant at 412 nm.
The pH values of all samples were adjusted to 7. The samples were incubated with 200 microliter immobilized-Protein A beads (RepliGen) and rotated at ambient temperature for 3 hours, after which the supernatant was removed and the beads washed with PBS. The thiol content of the immobilized antibody was determined by the addition of 0.2 ml of PBS containing 0.5 mM DTNB (Ellman's reagent) to the beads, rotation for about 10 minutes, centrifugation, and absorbance measurement of the supernatant at 412 nm.
To test the effect of L-cystine bis(t-butyl ester) (CDBE) on protecting antibody disulfide bonds from reduction by CHO lysate, humanized FOLR1 IgG1 antibody (2 mg) was incubated with CHO lysate in RIPA buffer (0.6 ml lysate of 60 million CHO cells in 0.6 ml RIPA buffer, clarified by centrifugation) without or with 0.5 or 1 mM CDBE. The samples were rotated at ambient temperature with 200 microliter immobilized-Protein A beads (RepliGen) for 2 hours, after which the supernatant was removed and the beads washed with PBS. The thiol content of the immobilized antibody was determined by the addition of 0.2 ml of PBS containing 0.5 mM DTNB (Ellman's reagent) to the beads, centrifugation, and absorbance measurement of the supernatant at 412 nm.
The samples were rotated at ambient temperature with 200 microliter immobilized-Protein A beads (RepliGen) for 2 hours, after which the supernatant was removed and the beads washed with PBS. The thiol content of the immobilized antibody was determined by the addition of 0.2 ml of PBS containing 0.5 mM DTNB (Ellman's reagent) to the beads, centrifugation, and absorbance measurement of the supernatant at 412 nm.

[3] = system: Humanized N901 (Anti-CD56 IgG1); experiment: Antibody disulfide reduction by damaged CHO cell supernatant (freeze-thaw), thiol per antibody by Ellman's assay; format: biochemical; conditions: for thiol per antibody: about 1.5 hours, control 6.4; for thiol per antibody / protection toward antibody-disulfide reduction: total thiol 0.8 mM; for protection toward antibody-disulfide reduction: 0.2 and 0.1 mM agent; for thiol/antibody ratio: about 2.5 hours, total thiol 0.4 mM, control 1.99
Method: as §1, §2
Humanized N901 (Anti-CD56 IgG1; 1 mg) was immobilized on 0.05 ml of Protein A bead (RepliGen) and then treated with pre-mixed 0.4 ml PBS and 0.1 ml damaged CHO cell supernatant (described in Example 1) with or without the addition of coenzyme Q analogs. The concentration of thiol in these mixtures was 0.8 mM.
The samples were rotated for about 1.5 hours at ambient temperature, following which the supernatant was removed and the beads washed with PBS three times. The thiol content of the immobilized antibody on the beads was then analyzed by the addition of 0.6 ml of mixture of PBS and 0.5 mM DTNB, rotation for about 10 minutes, centrifugation, and measurement of the absorbance of the supernatant at 412 nm. The number of thiol residues per antibody molecule after incubation with damaged CHO cell supernatant (without any coenzyme Q analog) was measured as 6.4 thiol/antibody.
Humanized N901 IgG1 (1 mg) was immobilized on 0.05 ml of Protein A bead (RepliGen) and treated with pre-mixed 0.45 ml PBS and 0.05 ml damaged CHO cell supernatant with or without 0.1 mM and 0.2 mM disulfiram (also named as tetraethylthiuram disulfide; added using a stock solution of disulfiram in DMSO). The concentration of total thiol (derived from damaged cells) in this mixture was 0.4 mM.
The samples were rotated for about 2.5 hours at ambient temperature, then centrifuged to pellet beads, following which the supernatants were removed and the beads washed with PBS four times. The thiol content of the immobilized antibody on the beads was then analyzed by the addition of 0.6 ml PBS containing 0.5 mM DTNB to the beads, rotation for about 30 minutes, centrifugation, and measurement of the absorbance of the supernatant at 412 nm.

[4] = Redox potential of antibody solution with media additive over a range of DTT concentrations; format: physicochemical; conditions: 1 mM additive, DTT 0.34 μM to 170 μM, 37° C., 1 h
M9346A antibody = format: biochemical; conditions: 1 mM additive
Method: Antibody reduction was induced in a biological assay by adding cell lysate to purified monoclonal antibody. […]. Increasing amounts of CHO cell lysate were added to mimic different percentages of cell lysis, ranging from […]. Fresh NADPH was added to a concentration of 400 μM. The mixtures were incubated in a water bath at 37° C. for 1 h. Free thiols were alkylated by addition of 10% (v/v) of 50 mM N-ethyl-maleimide (NEM) solution. Samples were analyzed by non-reduced sodium dodecyl sulfate denaturing capillary electrophoresis (NR-CE-SDS).
To test the capacity for protection further, the stringency of the assay was increased. […].

In the case of `O=C(O)CCCCC1CCSS1` (racemic) [lipoic acid, 1,2-dithiolane-3-pentanoic acid], the thiol/antibody ratio ([1]; 0.5 mM agent, total thiol 0.67 mM) is reported as 1.88, the thiol/antibody ratio ([1]; 2 mM agent, total thiol 0.67 mM) is reported as 1.08 and the “viability of CHO cells” value (CHO cells) is reported as 98.1%.
`CCOC(=O)[C@@H](N)CSSC[C@H](N)C(=O)OCC` [CDEE, L-cystine diethyl ester] gave a thiol/antibody (humanized N901 antibody; 0.75 mM agent, 4° C. overnight, control 2.29) of 1.02 thiol/antibody.
With `CC(=O)N[C@@H](CSSC[C@H](NC(C)=O)C(=O)O)C(=O)O` [Di-N-acetyl L-cystine] the “decrease in disulfide reduction compared to the control” value [2] was “about 64%” and the thiol per antibody ([2]; control 1.16) was “about 0.42 thiol per antibody”.
Work on `O=C1C=C(S(=O)(=O)O)c2ccccc2C1=O` [NQS, 1,2-naphthoquinone-4-sulfonic acid] yielded a thiol/antibody ratio (humanized N901 antibody; 0.025 mM agent) of 3.4, a thiol/antibody ratio (humanized N901 antibody; 0.05 mM agent) of 2.2 and a thiol/antibody ratio (humanized N901 antibody; 0.1 mM agent) of 1.25.
`COC1=C(OC)C(=O)C(C)=CC1=O` [coenzyme Q0, 2,3-dimethoxy-5-methyl-p-benzoquinone] showed a thiol per antibody ([3]; 0.1 mM agent) of 0.63 thiol per antibody and a thiol per antibody ([3]; 0.2 mM agent) of 0.34 thiol per antibody.
In the case of `COC1=C(OC)C(=O)C(C/C=C(\C)CCC=C(C)C)=C(C)C1=O` [coenzyme Q2, 2,3-dimethoxy-5-methyl-6-geranyl-p-benzoquinone], the “protection toward antibody-disulfide reduction” value [3] is reported as “decreased antibody disulfide-reduction”.
With `COC1=C(OC)C(=O)C(C/C=C(\C)CC/C=C(\C)CC/C=C(\C)CC/C=C(\C)CC/C=C(\C)CC/C=C(\C)CC/C=C(\C)CC/C=C(\C)CC/C=C(\C)CCC=C(C)C)=C(C)C1=O` [coenzyme Q10, reference compound] the “protection toward antibody-disulfide reduction” value [3] was “did not show significant protection”.
For `N[C@@H](CS)C(=O)O` [cysteine, reference compound], the “modulation of redox potential” value [4] was “constant redox potential at low concentrations of DTT, followed by a slow decrease at higher DTT concentrations” and the intact antibody (M9346A antibody; lysate mimicking 120% cell lysis, 400 μM NADPH, 37° C., 1 h, control 40%) was ~70%.
With `N[C@@H](CSSC[C@H](N)C(=O)O)C(=O)O` [cystine] the “modulation of redox potential” value [4] was “step-wise modulation of redox potential”.
Work on `CCN(CC)C(=S)SSC(=S)N(CC)CC` [disulfiram, tetraethylthiuram disulfide, reference compound] yielded a thiol/antibody ratio ([3]; 0.1 mM agent) of 0.14 and a thiol/antibody ratio ([3]; 0.2 mM agent) of 0.03.
`CN(C)c1ccc2nc3ccc(N(C)C)cc3[s+]c2c1` [methylene blue, Methylene blue] gave a thiol per antibody ([1]; 0.025 mM agent, total thiol 0.67 mM, control 4.2) of 0.38 thiol per antibody, a thiol per antibody ([1]; 0.05 mM agent, antibody eluted from Protein A bead and neutralized) of 0.002 thiol per antibody and a thiol per antibody ([1]; 0.05 mM agent, total thiol 0.67 mM, control 4.2) of 0.33 thiol per antibody.
For `O=S(=O)([O-])[O-].[Zn+2]` [zinc], the “protection at increased assay stringency” value (M9346A antibody; conditions where control without additive was 100% fragmented) was “protective of disulfide reduction”.
Work on oxidized glutathione [GSSG] yielded a thiol/antibody (humanized N901 antibody; 2 mM GSSG alone, 2.5 hours, lysate thiol 1 mM, control 5.63) of 0.98 thiol/antibody.
